Assay results published in EP2857388A1, “Azoles containing sulfone” (Grünenthal GmbH, priority 2013, dated 2015).

The compounds below were run against T1, human B1R (Homo sapiens, UniProt P46663) (assay: Functional assay at bradykinin receptor 1 (B1R): Ca2+ fluorescence (Fluo-4) in FLIPR/Novostar, antagonist mode). Conditions: test substance 10 µM; CHO K1 cells stably transfected with human B1R gene (hB1R-Zellen); agonist Lys-Des-Arg9-Bradykinin at EC80; % inhibition relative to maximal achievable inhibition; read-out: % Inhibierung (human B1R) bei 10 µM.
T1 construct: expressed in transfected cells; host or cells: CHO K1 cells (Chinese Hamster Ovary), stably transfected
T1 sequence (P46663 1-353): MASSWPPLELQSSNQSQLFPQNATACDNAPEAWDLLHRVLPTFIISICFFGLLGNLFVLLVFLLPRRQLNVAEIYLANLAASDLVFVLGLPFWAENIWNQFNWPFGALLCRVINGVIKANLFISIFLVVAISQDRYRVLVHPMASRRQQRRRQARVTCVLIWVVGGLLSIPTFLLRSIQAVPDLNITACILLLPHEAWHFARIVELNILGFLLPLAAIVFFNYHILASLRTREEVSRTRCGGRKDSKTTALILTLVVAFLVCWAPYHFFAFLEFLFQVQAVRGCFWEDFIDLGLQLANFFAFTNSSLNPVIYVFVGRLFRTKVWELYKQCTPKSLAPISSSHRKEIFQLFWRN
Format: cell-based
Experimental: Die agonistische bzw. antagonistische Wirkung von Substanzen kann am Bradykinin Rezeptor 1 (B1R) der Spezies Mensch und Ratte mit ektopisch exprimierenden Zelllinien (CHO K1 Zellen) und mit Hilfe eines Ca^2+-sensitiven Farbstoffs (Fluo-4) im Fluorescent Imaging Plate Reader (FLIPR) quantifiziert werden. Die Angabe in % Aktivierung wird bezogen auf das Ca^2+-Signal nach Zugabe von Lys-Des-Arg^9-Bradykinin ([…]), bzw. Des-Arg^9-Bradykinin (100 nM). Antagonisten führen zu einer Unterdrückung des Ca^2+-Einstroms nach der Zugabe des Agonisten. Angegeben werden % Inhibition im Vergleich zu der maximal erreichbaren Inhibition.
Die agonistische bzw. antagonistische Wirkung von Substanzen kann am Bradykinin Rezeptor 1 (B1R) der Spezies Mensch und Ratte mit folgendem Assay bestimmt werden. Gemäß diesem Assay wird der intrazelluläre Ca^2+-Anstieg nach Gabe eines B1 R Agonisten mit Hilfe eines Ca^2+-sensitiven Farbstoffs (Typ Fluo-4, Molecular Probes Europe BV, Leiden NL) im Fluorescent Imaging Plate Reader (FLIPR, Molecular Devices, Sunnyvale, USA) und/oder im Novostar (BMG Labtech GmbH, Offenburg, DE) quantifiziert.
Es werden Chinese Hamster Ovary Zellen (CHO K1 Zellen) verwendet, die stabil mit dem humanen B1 R-Gen (hB1R-Zellen) bzw. dem B1 R-Gen der Ratte (rB1R-Zellen) transfiziert sind. Für funktionelle Untersuchungen werden diese Zellen auf schwarze 96-Loch-Platten mit klarem Boden (BD Biosciences, Heidelberg, DE oder Greiner, Frickenhausen, DE) in einer Dichte von 20.000 - 35.000 Zellen/Loch ausplattiert. Über Nacht werden die Zellen bei 37°C und 5 % CO2 in Kulturmedium (hB1 R-Zellen: Nutrient Mixture Ham's F12, Gibco Invitrogen GmbH, Karlsruhe, Deutschland oder DMEM, Sigma-Aldrich, Taufkirchen, Deutschland; rB1R-Zellen: D-MEM/F12, Gibco Invitrogen GmbH, Karlsruhe, DE) mit 10 Vol-% FBS (Fetal bovine serum, Gibco Invitrogen GmbH, Karlsruhe, DE oder PAN Biotech GmbH, Aidenbach, DE) belassen. Am folgenden Tag werden die Zellen mit 2,13 µM Fluo-4 (Molecular Probes Europe BV, Leiden, NL) in HBSS-Puffer (Hank's buffered saline solution, Gibco Invitrogen GmbH, Karlsruhe, DE) mit 2,5 mM Probenecid (Sigma-Aldrich, Taufkirchen, DE) und 10 mM HEPES (Sigma-Aldrich, Taufkirchen, DE) für 60 min bei 37°C beladen. Anschließend werden die Platten 2 x mit HBSS-Puffer gewaschen und mit HBSS-Puffer versetzt, der zusätzlich 0,1 % BSA (bovines Serumalbumin; Sigma-Aldrich, Taufkirchen, Deutschland), 5,6 mM Glucose und 0,05 % Gelatine (Merck KGaA, Darmstadt, DE) enthält. Nach einer weiteren Inkubation von 20 Minuten bei RT werden die Platten zur Ca^2+-Messung im FLIPR oder Novostar eingesetzt. Alternativ wird mit Puffer A (15 mM HEPES, 80 mM NaCl, 5 mM KCI, 1,2 mM CaCl2, 0,7 mM MgSO4, 2g/L Glucose, 2,5 mM Probenecid) gewaschen und mit Puffer A versetzt mit 2,5 µM Fluo-4 und 0,025 % Pluronic F127 (Sigma-Aldrich, Taufkirchen, DE) beladen. Danach werden die Zellen 2 x mit Puffer A gewaschen und für 30 Minuten mit Puffer A, der zusätzlich 0,05 % BSA und 0,05 % Gelatine enthält bei RT inkubiert und danach zur Ca^2+-Messung im FLIPR oder Novostar eingesetzt.
Die Ca^2+-abhängige Fluoreszenz wird dabei vor und nach Zugabe von Substanzen gemessen (λex = 488 nm, λem = 540 nm). Die Quantifizierung erfolgt durch die Messung der höchsten Fluoreszenzintensität (FC, Fluorescence Counts) über die Zeit.
Das FLIPR-Protokoll besteht aus 2 Substanzzugaben, die im FLIPR pipettiert werden. Bei Messungen im Novostar wird nur die zweite Substanzzugabe im Gerät pipettiert. Beide Geräte messen die Fluoreszenzintensität über die Zeit. Zunächst werden Testsubstanzen (10 µM) auf die Zellen pipettiert und der intrazelluläre Ca^2+-Anstieg mit der Kontrolle (hB1 R: Lys-Des-Arg^9-Bradykinin >= 50 nM; rB1 R: Des-Arg^9-Bradykinin >= 1 µM) verglichen. Daraus ergibt sich die Angabe in % Aktivierung bezogen auf das Ca^2+-Signal nach Zugabe von Lys-Des-Arg^9-Bradykinin (>= 50 nM), bzw. Des-Arg^9-Bradykinin (>=1 µM). Nach 6-20 Minuten Inkubation werden Lys-Des-Arg^9-Bradykinin (hB1 R) bzw. […]

How did the inhibition at 10 µM turn out when `Cc1cc(S(=O)(=O)Cc2noc(C(=O)NC3CCC(N4CCCC4)CC3(C)C)n2)c(C)cc1Cl` (stereo not drawn) [CC-22, 3-[[(4-Chlor-2,5-dimethyl-phenyl)sulfonyl]-methyl]-N-(2,2-dimethyl-4-pyrrolidin-1-yl-cyclohexyl)-[1,2,4]oxadiazol-5-carbonsäure amid] was run?
The inhibition at 10 µM was 100%.

`COc1cc(C)c(S(=O)(=O)Cc2noc(CC(=O)NC3CCC(N4CCCC4)CC3(C)C)n2)c(C)c1` (stereo not drawn) [CC-23, N-(2,2-Dimethyl-4-pyrrolidin-1-yl-cyclohexyl)-2-[3-[[(4-methoxy-2,6-dimethyl-phenyl)sulfonyl]-methyl]-[1,2,4]oxadiazol-5-yl]-acetamid] was tested. Which inhibition at 10 µM did it give?
The inhibition at 10 µM was 100%.

For `Cc1cc(S(=O)(=O)Cc2noc(C(=O)NC3CCNCC3(C)C)n2)c(C)cc1Cl` (stereo not drawn) [CC-24, 3-[[(4-Chlor-2,5-dimethyl-phenyl)sulfonyl]-methyl]-N-(3,3-dimethyl-piperidin-4-yl)-[1,2,4]oxadiazol-5-carbonsäure amid], which inhibition at 10 µM is on record?
The inhibition at 10 µM was 86%.

With `COc1cc(C)c(S(=O)(=O)Cc2nc(CC(=O)NC3CCC(N4CCCC4)CC3(C)C)no2)c(C)c1` (stereo not drawn) [CC-26, N-(2,2-Dimethyl-4-pyrrolidin-1-yl-cyclohexyl)-2-[5-[[(4-methoxy-2,6-dimethyl-phenyl)sulfonyl]-methyl]-[1,2,4]oxadiazol-3-yl]-acetamid] as the compound, how does the inhibition at 10 µM read?
Its inhibition at 10 µM is 100%.

With `COCCN1CCC(NC(=O)Cc2noc(CS(=O)(=O)c3c(C)cc(OC)cc3C)n2)C(C)(C)C1` (stereo not drawn) [CC-27, 2-[5-[[(4-Methoxy-2,6-dimethyl-phenyl)sulfonyl]-methyl]-[1,2,4]oxadiazol-3-yl]-N-[1-(2-methoxy-ethyl)-3,3-dimethyl-piperidin-4-yl]-acetamid] as the compound, how does the inhibition at 10 µM read?
Its inhibition at 10 µM is 100%.

With `COc1cc(C)c(S(=O)(=O)Cc2nc(CC(=O)NC3CCC(N(C)C)CC3)no2)c(C)c1` (stereo not drawn) [CC-28, N-(4-Dimethylamino-cyclohexyl)-2-[5-[[(4-methoxy-2,6-dimethyl-phenyl)sulfonyl]-methyl]-[1,2,4]oxadiazol-3-yl]-acetamid] as the compound, how does the inhibition at 10 µM read?
The inhibition at 10 µM was 100%.

Which inhibition at 10 µM does the source give for `COc1cc(C)c(S(=O)(=O)Cc2nnc(CC(=O)NC3CCC(N4CCCC4)CC3(C)C)o2)c(C)c1` (stereo not drawn) [CC-29, N-(2,2-Dimethyl-4-pyrrolidin-1-yl-cyclohexyl)-2-[5-[[(4-methoxy-2,6-dimethyl-phenyl)sulfonyl]-methyl]-[1,3,4]oxadiazol-2-yl]-acetamid] here?
The inhibition at 10 µM was 100%.

How did the inhibition at 10 µM turn out when `COc1cc(C)c(S(=O)(=O)Cc2nc(CC(=O)NC3CCN(C(C)=O)CC3(C)C)no2)c(C)c1` (stereo not drawn) [CC-30, N-(1-Acetyl-3,3-dimethyl-piperidin-4-yl)-2-[5-[[(4-methoxy-2,6-dimethyl-phenyl)sulfonyl]-methyl]-[1,2,4]oxadiazol-3-yl]-acetamid] was run?
The inhibition at 10 µM was 90%.

For `COCCN1CCC(NC(=O)Cc2nnc(CS(=O)(=O)c3c(C)cc(OC)cc3C)o2)C(C)(C)C1` (stereo not drawn) [CC-31, 2-[5-[[(4-Methoxy-2,6-dimethyl-phenyl)sulfonyl]-methyl]-[1,3,4]oxadiazol-2-yl]-N-[1-(2-methoxy-ethyl)-3,3-dimethyl-piperidin-4-yl]-acetamid], which inhibition at 10 µM is on record?
Its inhibition at 10 µM is 100%.

For `COc1cc(C)c(S(=O)(=O)Cc2nc(CC(=O)NC3CCC(N4CCCC4)CC3)no2)c(C)c1` (stereo not drawn) [CC-32, 2-[5-[[(4-Methoxy-2,6-dimethyl-phenyl)sulfonyl]-methyl]-[1,2,4]oxadiazol-3-yl]-N-(4-pyrrolidin-1-yl-cyclohexyl)-acetamid], which inhibition at 10 µM is on record?
The inhibition at 10 µM was 100%.

`COc1cc(C)c(S(=O)(=O)Cc2nc(CC(=O)NC3CCC(N4CCN(C)CC4)CC3(C)C)no2)c(C)c1` (stereo not drawn) [CC-33, N-[2,2-Dimethyl-4-(4-methyl-piperazin-1-yl)-cyclohexyl]-2-[5-[[(4-methoxy-2,6-dimethyl-phenyl)sulfonyl]-methyl]-[1,2,4]oxadiazol-3-yl]-acetamid] was tested. Which inhibition at 10 µM did it give?
The inhibition at 10 µM was 100%.

For `COc1cc(C)c(S(=O)(=O)Cc2nnc(CC(=O)NC3CCC(N(C)C)CC3)o2)c(C)c1` (stereo not drawn) [CC-34, N-(4-Dimethylamino-cyclohexyl)-2-[5-[[(4-methoxy-2,6-dimethyl-phenyl)sulfonyl]-methyl]-[1,3,4]oxadiazol-2-yl]-acetamid], which inhibition at 10 µM is on record?
Its inhibition at 10 µM is 100%.
